Measurements taken from ChEMBL document CHEMBL1126444, “Synthesis and structure-activity relationships of heterocyclic analogues of the functional M1 selective muscarinic agonist hexyloxy-TZTP” (Bioorg Med Chem Lett, 1992).

Experiments:
[1] = target: Muscarinic acetylcholine receptor; assay: Displacement of [3H]-OXO-M (oxotremorine-M) from the central muscarinic receptor sites of the rat brain membranes; type: cell membranes, Membrane
[2] = target: T1, Muscarinic acetylcholine receptor M1 (Rattus norvegicus, UniProt P08482); assay: Displacement of [3H]-Pz (pirenzepine) from the muscarinic receptor M1 of the rat hippocampus; type: tissue-based
T1 sequence (P08482 whole entry): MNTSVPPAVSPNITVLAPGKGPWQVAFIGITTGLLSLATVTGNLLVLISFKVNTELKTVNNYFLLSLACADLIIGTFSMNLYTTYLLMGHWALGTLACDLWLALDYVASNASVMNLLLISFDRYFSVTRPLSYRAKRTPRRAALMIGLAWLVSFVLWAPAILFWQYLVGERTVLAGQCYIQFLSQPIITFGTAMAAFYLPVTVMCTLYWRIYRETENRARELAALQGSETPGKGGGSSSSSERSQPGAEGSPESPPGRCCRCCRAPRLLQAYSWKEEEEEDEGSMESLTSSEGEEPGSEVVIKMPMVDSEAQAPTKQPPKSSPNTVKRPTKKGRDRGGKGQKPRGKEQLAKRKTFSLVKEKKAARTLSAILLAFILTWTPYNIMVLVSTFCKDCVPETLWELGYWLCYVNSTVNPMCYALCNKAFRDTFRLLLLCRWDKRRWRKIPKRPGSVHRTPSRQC

[3] = species on record: Oryctolagus cuniculus; assay: Percent maximum inhibition of the twitch response in the electrically stimulated rabbit vas deferens was determined.; type: functional
[4] = species on record: Oryctolagus cuniculus; assay: Compound was evaluated for the inhibition of the twitch response in the electrically stimulated rabbit vas deferens; type: functional

IC50 [1] [nM] | IC50 [2] [nM] | IC50 [4] [µM] | Structure (SMILES) | Inhibition [3] [%]
1.4 | – | – | CCCCOc1nsnc1C1=CCCN(C)C1 | –
> 900 | 715 | – | CCCCCCOc1nscc1C1=CCCN(C)C1 | 43
759 | – | – | CCCCOc1noc(C)c1C1=CCCN(C)C1 | –
> 900 | 663 | 39 | CCCCCCOc1cscc1C1=CCCN(C)C1 | 93
544 | 565 | – | CCCCOc1nscc1C1=CCCN(C)C1 | 18
477 | 369 | – | CCCCOc1cscc1C1=CCCN(C)C1 | 18
70 | – | – | CCCCCCOc1nonc1C1=CCCN(C)C1 | 47
24 | – | – | CCCCOc1nonc1C1=CCCN(C)C1 | 12
– | – | – | CCCCCCOc1nsnc1C1=CCCN(C)C1 [XANOMELINE] | 88

Structure (SMILES) | IC50 [1] [nM] | IC50 [2] [nM] | IC50 [4] [µM] | Inhibition [3] [%]
C[N+](C)(C)CC#CCOC(=O)Nc1cccc(Cl)c1.[Cl-] | 355 | – | – | 91
